{"source": "patent US20260176302A1", "about": "“SARS-CoV-2 Binding Polypeptide” (Leyden Laboratories B.V., priority 2022, published 2026)", "system": "SARS-CoV-2 B.1.351 variant", "format": "in vivo, Mouse (Mus musculus)", "data": [{"sequence": "IINPRGDGTRYAQKFQG [SEQ ID NO: 082]", "values": [{"measurement": "survival time vs control group (log-rank test)", "setting": "[…], control median survival 7 days", "value": "significant improvement in survival time"}, {"measurement": "clinical signs (score 0-4)", "setting": "mouse, in vivo", "value": "No clinical signs"}, {"measurement": "survival proportion at day 21", "setting": "mouse, in vivo", "value": 100, "unit": "%"}, {"measurement": "change in bodyweight (AUC) / weight loss vs control group", "setting": "mouse, in vivo, listed as test polypeptide", "value": "significant reduction in weight loss"}]}]}
